In assay [1] the target is GlunN1/GluN2A glutamate receptors (Homo sapiens (Human), UniProt Q05586+Q12879). Put plainly: Whole-cell patch clamp of mammalian cells (Ionworks Barracuda), positive allosteric modulation, GluN1/GluN2A. Format: cell-based. In short, it runs like this:
(§1)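 Perforated-patch whole-cell recording, holding −70 mV, −40 mV during application; Cs-based internal pH 7.2, external with 5 mM CaCl2 pH 7.4. Test article pre-applied alone 5 min, then co-applied with EC20 L-glutamate plus 30 μM glycine. EC50 from Hill fit of % activation over the EC20 current.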
On the technique in general: Patch clamp records ionic current or voltage across a cell membrane.

For assay [2], the target named is GluN2B glutamate receptors (Homo sapiens (Human), UniProt Q05586+Q13224). Put plainly: Whole-cell patch clamp of mammalian cells (Ionworks Barracuda), positive allosteric modulation, GluN2B. The assay is classed as cell-based. To be noted: for Emax: read-out: Avg Emax 2B (%). Put shortly: as §1
GluN2B glutamate receptors, sequence (Q13224 27-1484, other chains not shown): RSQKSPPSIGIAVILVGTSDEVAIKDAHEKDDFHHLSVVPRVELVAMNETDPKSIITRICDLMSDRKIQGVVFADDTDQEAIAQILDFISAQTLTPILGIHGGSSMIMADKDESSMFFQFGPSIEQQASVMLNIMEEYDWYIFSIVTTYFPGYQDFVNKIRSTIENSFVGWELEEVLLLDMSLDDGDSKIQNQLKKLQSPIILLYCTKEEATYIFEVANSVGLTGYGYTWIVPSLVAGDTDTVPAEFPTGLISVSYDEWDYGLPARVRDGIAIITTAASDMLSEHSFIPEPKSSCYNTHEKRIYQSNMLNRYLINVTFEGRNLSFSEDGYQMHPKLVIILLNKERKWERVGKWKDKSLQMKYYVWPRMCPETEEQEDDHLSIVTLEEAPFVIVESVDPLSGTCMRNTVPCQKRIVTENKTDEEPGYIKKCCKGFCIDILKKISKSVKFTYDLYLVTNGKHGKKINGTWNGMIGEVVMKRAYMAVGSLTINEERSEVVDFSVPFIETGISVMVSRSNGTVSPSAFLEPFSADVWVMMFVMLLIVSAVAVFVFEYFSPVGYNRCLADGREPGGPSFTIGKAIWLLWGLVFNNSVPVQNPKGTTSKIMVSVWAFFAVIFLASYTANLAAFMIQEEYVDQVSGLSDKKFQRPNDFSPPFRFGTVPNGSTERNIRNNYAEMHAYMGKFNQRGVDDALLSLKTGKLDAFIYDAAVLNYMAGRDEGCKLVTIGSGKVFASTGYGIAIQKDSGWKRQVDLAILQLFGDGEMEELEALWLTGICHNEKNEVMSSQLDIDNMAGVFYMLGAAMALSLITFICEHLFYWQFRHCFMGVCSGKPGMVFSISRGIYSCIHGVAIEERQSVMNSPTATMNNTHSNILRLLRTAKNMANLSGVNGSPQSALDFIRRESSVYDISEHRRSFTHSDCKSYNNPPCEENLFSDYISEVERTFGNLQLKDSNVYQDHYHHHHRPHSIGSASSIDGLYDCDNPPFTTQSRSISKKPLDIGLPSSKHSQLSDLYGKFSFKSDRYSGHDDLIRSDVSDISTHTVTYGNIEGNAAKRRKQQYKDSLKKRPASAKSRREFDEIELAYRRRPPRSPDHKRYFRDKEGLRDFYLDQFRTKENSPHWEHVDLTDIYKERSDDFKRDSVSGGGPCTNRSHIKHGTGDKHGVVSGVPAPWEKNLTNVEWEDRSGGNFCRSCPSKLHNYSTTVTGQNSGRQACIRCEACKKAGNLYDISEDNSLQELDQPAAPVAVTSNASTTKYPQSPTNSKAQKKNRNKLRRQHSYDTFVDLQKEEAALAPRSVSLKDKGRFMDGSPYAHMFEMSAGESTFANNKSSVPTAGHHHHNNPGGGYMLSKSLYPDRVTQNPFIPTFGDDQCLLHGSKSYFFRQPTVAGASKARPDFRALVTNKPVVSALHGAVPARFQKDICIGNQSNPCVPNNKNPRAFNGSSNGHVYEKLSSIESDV
Where [3] appears, read: HEK293 cells, % potentiation of current elicited with EC20 L-glutamate and 30 μM glycine, read-out: Avg Emax 2A (%).
[4] abbreviates: % potentiation of current elicited with EC20 L-glutamate and 30 μM glycine.
[5] abbreviates: HEK293, read-out: Avg Emax 2A (%).
Where [6] appears, read: HEK293 cells, co-application with EC20 L-glutamate and 30 μM glycine, 8-point concentration-response, read-out: Avg EC50 2A.

Read-outs that look alike come from different tables or passages of the source.

GlunN1/GluN2A glutamate receptors, sequence (Q12879 23-1464, other chains not shown): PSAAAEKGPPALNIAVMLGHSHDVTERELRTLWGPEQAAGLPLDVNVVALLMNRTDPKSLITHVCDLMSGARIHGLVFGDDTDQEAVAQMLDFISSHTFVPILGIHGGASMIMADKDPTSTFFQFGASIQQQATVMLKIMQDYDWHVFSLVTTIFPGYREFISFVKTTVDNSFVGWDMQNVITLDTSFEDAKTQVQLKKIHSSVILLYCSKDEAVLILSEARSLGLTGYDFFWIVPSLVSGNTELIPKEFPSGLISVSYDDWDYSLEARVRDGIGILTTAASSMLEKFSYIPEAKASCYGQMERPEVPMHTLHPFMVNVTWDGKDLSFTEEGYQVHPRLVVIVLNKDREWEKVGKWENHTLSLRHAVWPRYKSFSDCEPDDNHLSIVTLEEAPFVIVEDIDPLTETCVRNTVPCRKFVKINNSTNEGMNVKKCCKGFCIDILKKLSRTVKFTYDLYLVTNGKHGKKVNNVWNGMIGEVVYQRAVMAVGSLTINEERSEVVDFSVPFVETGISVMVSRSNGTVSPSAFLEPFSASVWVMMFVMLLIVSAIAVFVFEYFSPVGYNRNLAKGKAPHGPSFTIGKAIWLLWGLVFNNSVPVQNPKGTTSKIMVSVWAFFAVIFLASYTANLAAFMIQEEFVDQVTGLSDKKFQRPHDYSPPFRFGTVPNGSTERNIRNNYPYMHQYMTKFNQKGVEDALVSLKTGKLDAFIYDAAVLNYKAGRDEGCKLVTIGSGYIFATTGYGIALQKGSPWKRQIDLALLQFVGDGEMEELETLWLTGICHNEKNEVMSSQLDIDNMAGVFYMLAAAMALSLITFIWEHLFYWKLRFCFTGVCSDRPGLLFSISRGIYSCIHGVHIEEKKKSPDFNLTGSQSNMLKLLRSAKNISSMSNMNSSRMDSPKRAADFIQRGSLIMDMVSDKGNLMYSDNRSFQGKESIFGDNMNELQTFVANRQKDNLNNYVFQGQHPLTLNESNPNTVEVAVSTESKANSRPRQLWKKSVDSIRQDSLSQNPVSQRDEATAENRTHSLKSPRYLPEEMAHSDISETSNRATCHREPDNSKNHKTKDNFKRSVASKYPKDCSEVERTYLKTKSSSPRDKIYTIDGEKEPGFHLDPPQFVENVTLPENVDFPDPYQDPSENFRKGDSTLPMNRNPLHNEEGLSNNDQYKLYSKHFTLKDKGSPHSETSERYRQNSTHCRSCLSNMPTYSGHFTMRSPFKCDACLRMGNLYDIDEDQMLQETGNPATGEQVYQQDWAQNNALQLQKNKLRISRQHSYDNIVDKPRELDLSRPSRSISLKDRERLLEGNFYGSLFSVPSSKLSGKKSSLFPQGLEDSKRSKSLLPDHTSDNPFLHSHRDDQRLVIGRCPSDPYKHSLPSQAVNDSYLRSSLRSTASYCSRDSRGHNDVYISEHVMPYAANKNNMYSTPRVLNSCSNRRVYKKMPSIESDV

What is called EC50 is the midpoint of the concentration-response curve. By Emax is commonly meant the greatest response seen or fitted, relative to the assay's reference. Regarding `CC[C@]1(O)CC[C@@]2(C)C(=CC[C@H]3[C@@H]4CC[C@H]([C@H](C)CC[C@@H](O)c5cccc(C#N)c5)[C@@]4(C)CC[C@@H]32)C1` [Compound 6997], the EC50 in assay [1] worked out at 0.373 µM; in assay [2], 0.414 µM. The Emax was 327% in assay [1] (setting [3]) and 315% in assay [2] (setting [4]).

As for `C[C@H](CCC(O)C1CCOCC1)[C@H]1CC[C@H]2[C@@H]3CC[C@H]4C[C@](O)(C(F)(F)F)CC[C@]4(C)[C@H]3CC[C@]12C` (stereo partly shown) [Compound 9], the EC50 in assay [1] was 0.317 µM; in assay [2], 0.234 µM. The Emax is 181% in assay [1] (setting [3]) and 271% in assay [2] (setting [4]).

In the case of `CC[C@]1(O)CC[C@@]2(C)[C@@H](CC[C@@H]3[C@@H]2CC[C@]2(C)[C@@H]([C@H](C)CC[C@@H](O)c4cccnc4)CC[C@@H]32)C1` [Compound 6755], the EC50 in assay [1] and in assay [2] was greater than 10 µM throughout. For the same compound, the Emax in assay [1] (setting [3]) came to 22.8%; in assay [2] (setting [4]), 44.2%.

As to `C[C@H](CC[C@@H](O)C(F)(F)F)[C@H]1CC[C@H]2[C@@H]3CC=C4C[C@](O)(C(F)(F)F)CC[C@]4(C)[C@H]3CC[C@]12C` [Compound 3149], the EC50 came out at 0.0697 µM in assay [1] and 0.0607 µM in assay [2].

As to `C[C@H](CCC1(O)CCC(F)(F)CC1)[C@H]1CC[C@H]2[C@@H]3CC[C@H]4C[C@](O)(C(F)(F)F)CC[C@]4(C)[C@H]3CC[C@]12C` [Compound 8], the EC50 stood at 0.446 µM in assay [1] and 0.372 µM in assay [2].

Consider `C[C@H](CC[C@@]1(O)CCOC1)[C@H]1CC[C@H]2[C@@H]3CC[C@H]4C[C@](O)(C(F)(F)F)CC[C@]4(C)[C@H]3CC[C@]12C` [Compound 2706], for which the figures for the EC50 in assay [1] and in assay [2] were greater than 10 µM and 0.124 µM, respectively. Moreover, the Emax in assay [1] (setting [3]) amounted to 96.8%; in assay [2] (setting [4]) it was 139%.

For `C[C@H](CCC[C@H](O)C(F)(F)F)[C@H]1CC[C@H]2[C@@H]3CC[C@H]4C[C@](O)(C(F)(F)F)CC[C@]4(C)[C@H]3CC[C@]12C` [Compound 11934], the Emax in assay [1] (setting [3]) stood at 113%; in assay [2] (setting [4]), 70%.

Take `CC[C@]1(O)CC[C@@]2(C)C(=CC[C@H]3[C@@H]4CC[C@H]([C@H](C)CC[C@@H](O)Cc5ccccc5)[C@@]4(C)CC[C@@H]32)C1` [Compound 6052]: the results for the concentration giving a half-maximal response (EC50) in assay [1] and in assay [2] were 0.426 µM and 0.232 µM, respectively. In addition, the Emax amounted to 102% in assay [1] (setting [3]) and 92.2% in assay [2] (setting [4]).

For `CC[C@]1(O)CC[C@@]2(C)C(=CC[C@H]3[C@@H]4CC[C@H]([C@H](C)CC[C@H](O)c5ccccc5)[C@@]4(C)CC[C@@H]32)C1` [Compound 961], the EC50 was determined as 0.617 µM in assay [1] and 0.18 µM in assay [2]. The Emax in assay [1] (setting [3]) worked out at 138%; in assay [2] (setting [4]), 97.4%.

Turning to `CC[C@]1(O)CC[C@@]2(C)[C@@H](CC[C@@H]3[C@@H]2CC[C@]2(C)[C@@H]([C@H](C)CC[C@H](O)c4ccccn4)CC[C@@H]32)C1` [Compound 7032], the Emax in assay [1] (setting [3]) came to 28.3%; in assay [2] (setting [4]), 63.8%. Moreover, the EC50 in assay [2] stood at 0.874 µM.

In the case of `C[C@H](CCC(O)Cc1ccccc1)[C@H]1CC[C@H]2[C@@H]3CC=C4C[C@@](C)(O)CC[C@]4(C)[C@H]3CC[C@]12C` (stereo partly shown) [Compound 660], the Emax in assay [1] (setting [3]) came to 195%; in assay [2] (setting [4]), 281%.

For `CC[C@]1(O)CC[C@H]2[C@@H](CC[C@@H]3[C@@H]2CC[C@]2(C)[C@@H]([C@H](C)CCC(O)C(C)C)CC[C@@H]32)C1` (stereo partly shown) [Compound 476], the EC50 in assay [1] was 0.406 µM; in assay [2], 0.189 µM. Moreover, the Emax in assay [1] (setting [3]) is 811%; in assay [2] (setting [4]), 399%.

For the compound `C[C@H](CC[C@]1(O)CC[C@@H](C)CC1)[C@H]1CC[C@H]2[C@@H]3CC[C@H]4C[C@](O)(C(F)(F)F)CC[C@]4(C)[C@H]3CC[C@]12C` [Compound 3886], the results for the Emax in assay [1] (setting [5]) and in assay [2] were 106% and 164%, respectively.

For the compound `CC[C@]1(O)CC[C@H]2[C@@H](CC[C@@H]3[C@@H]2CC[C@]2(C)[C@@H]([C@H](C)CCC4(O)CC4)CC[C@@H]32)C1` [Compound 8127], the EC50 in assay [1] was determined as 0.543 µM; in assay [2], 0.571 µM. Also, the Emax was found to be 136% in assay [1] (setting [3]) and 211% in assay [2] (setting [4]).

Turning to `C[C@H](CCC1(O)CCOC1)[C@H]1CC[C@H]2[C@@H]3CC[C@H]4C[C@](O)(C(F)(F)F)CC[C@]4(C)[C@H]3CC[C@]12C` (stereo partly shown) [Compound 1967], the EC50 in assay [1] came to 0.171 µM; in assay [2], 0.113 µM. Also, the figures for the Emax in assay [1] (setting [3]) and in assay [2] (setting [4]) were 347% and 374%, respectively.

With `CC[C@]1(O)CC[C@@]2(C)C(=CC[C@H]3[C@@H]4CC[C@H]([C@H](C)CC[C@H](O)c5cccnc5)[C@@]4(C)CC[C@@H]32)C1` [Compound 6458], the EC50 in assay [1] was greater than 10 µM; in assay [2] it was 0.929 µM. In addition, the values for the Emax in assay [1] (setting [3]) and in assay [2] (setting [4]) were 30.9% and 79.4%, respectively.

As to `C[C@H](CCCO)[C@H]1CC[C@H]2[C@@H]3CC[C@H]4C[C@](O)(C(F)(F)F)CC[C@]4(C)[C@H]3CC[C@]12C` [Compound 2499], the EC50 was 0.768 µM in assay [1] and 0.751 µM in assay [2]. For the same compound, the Emax in assay [1] (setting [3]) was determined as 180%; in assay [2] (setting [4]) it was 238%.

For the compound `CC[C@]1(O)CC[C@@]2(C)C(=CC[C@H]3[C@@H]4CC[C@H]([C@H](C)CCC(O)Cc5ccccc5)[C@@]4(C)CC[C@@H]32)C1` (stereo partly shown) [Compound 6010], the figures for the concentration giving a half-maximal response (EC50) in assay [1] and in assay [2] were 1.1 µM and 1.57 µM, respectively. Moreover, the maximal effect (Emax) in assay [1] (setting [3]) came out at 239%; in assay [2] (setting [4]), 184%.

On to `C[C@H](CC[C@H](O)C(C)(C)C)[C@H]1CC[C@H]2[C@@H]3CC[C@H]4C[C@](O)(C(F)(F)F)CC[C@]4(C)[C@H]3CC[C@]12C` [Compound 2184], for which the values for the 50% effective concentration (EC50) in assay [1] and in assay [2] were 0.0658 µM and 0.08 µM, respectively.

`CC[C@]1(O)CC[C@@]2(C)C(=CC[C@H]3[C@@H]4CC[C@H]([C@H](C)CC[C@H](O)c5ccc(C#N)cc5)[C@@]4(C)CC[C@@H]32)C1` (single isomer, unassigned) [Compound 6681]: the values for the concentration giving a half-maximal response (EC50) in assay [1] and in assay [2] were 0.365 µM and 0.36 µM, respectively. Besides, the Emax is 172% in assay [1] (setting [3]) and 165% in assay [2] (setting [4]).

With `CC(C)[C@@H](O)CC[C@@H](C)[C@H]1CC[C@H]2[C@@H]3CC[C@H]4C[C@](O)(C(F)(F)F)CC[C@]4(C)[C@H]3CC[C@]12C` [Compound 2A], the Emax in assay [1] (setting [3]) was determined as 653%. In addition, the values for the EC50 in assay [1] (setting [6]) and in assay [2] were 0.158 µM and 0.339 µM, respectively.

With `CC[C@]1(O)CC[C@H]2C(=CC[C@@H]3[C@@H]2CC[C@]2(C)[C@@H]([C@H](C)CCC[C@](C)(O)C(F)(F)F)CC[C@@H]32)C1` [Compound 10557], the results for the Emax in assay [1] (setting [3]) and in assay [2] (setting [4]) were 190% and 202%, respectively. Further, the EC50 was 0.287 µM in assay [1] (setting [6]); 0.192 µM in assay [2] (co-application with EC20 L-glutamate and 30 μM glycine, 8-point concentration-response, read-out: Avg EC50 2B).

`CC[C@]1(O)CC[C@@]2(C)[C@@H](CC[C@@H]3[C@@H]2CC[C@]2(C)[C@@H]([C@H](C)CC[C@@H](O)c4ccccc4)CC[C@@H]32)C1` [Compound 6571]: the EC50 in assay [1] was 0.19 µM; in assay [2], 0.267 µM. The Emax in assay [1] (setting [3]) is 158%; in assay [2] (setting [4]), 241%.

As for `C[C@H](O)CC[C@@H](C)[C@H]1CC[C@H]2[C@@H]3CC[C@H]4C[C@](O)(C(F)(F)F)CC[C@]4(C)[C@H]3CC[C@]12C` [Compound 6], the values for the EC50 in assay [1] and in assay [2] were 0.248 µM and 0.733 µM, respectively.

Turning to `C[C@H](CCC(C)(O)c1ccccc1)[C@H]1CC[C@H]2[C@@H]3CC=C4C[C@@](C)(O)CC[C@]4(C)[C@H]3CC[C@]12C` (stereo partly shown) [Compound 456], the Emax was 53.4% in assay [1] (setting [5]) and 74.8% in assay [2].

The values above are taken from patent US11149054B2, “Oxysterols and methods of use thereof” (Sage Therapeutics, Inc., priority 2016, dated 2021).
